Experimental data: ChEMBL document CHEMBL6109059, “Synthesis and biofilm inhibitory activity of cyclic dinucleotide analogues prepared with macrocyclic ribose-phosphate skeleton” (2025)
Active and inactive are the calls of the source. The rule behind the calls is not given here.

Tests used:
Staphylococcus aureus [1] = assay: Inhibition of biofilm formation in Staphylococcus aureus NBRC13276 at 156 uM measured after 24 hrs by crystal violet staining based assay relative to control; type: functional
Escherichia coli [2] = assay: Antibacterial activity against Escherichia coli DH5alpha; type: functional, organism-based
Escherichia coli [3] = assay: Inhibition of biofilm formation in Escherichia coli DH5alpha at 156 uM measured after 24 hrs by crystal violet staining based assay relative to control; type: functional; settings: DH5-alpha
Pseudomonas aeruginosa [4] = assay: Antibacterial activity against Pseudomonas aeruginosa NBRC13275; type: functional, organism-based
Pseudomonas aeruginosa [5] = assay: Inhibition of biofilm formation in Pseudomonas aeruginosa NBRC13275 at 156 uM measured after 6 hrs by crystal violet staining based assay relative to control; type: functional
Staphylococcus aureus [6] = assay: Antibacterial activity against Staphylococcus aureus NBRC13276; type: functional, organism-based
Escherichia coli [7] = assay: Potency index, ratio of compound effect to c-di-GMP effect on inhibition of biofilm formation in Escherichia coli DH5alpha; type: functional

Q: With O=P1(O)OC[C@H]2O[C@@H](n3cc(-c4cccc(F)c4)nn3)[C@H](O)[C@@H]2OP(=O)(O)OC[C@H]2O[C@@H](n3cc(-c4cccc(F)c4)nn3)[C@H](O)[C@@H]2O1 as the molecule, how does the inhibition at 156 µM (Staphylococcus aureus [1]) read?
A: 7.15%

Q: And the Activity (Escherichia coli [2])?
A: inactive

Q: What about the inhibition at 156 µM (Escherichia coli [3]) of the same molecule?
A: 30.6%

Q: And the Activity (Pseudomonas aeruginosa [4])?
A: inactive

Q: What about the inhibition at 156 µM (Pseudomonas aeruginosa [5]) of the same molecule?
A: 57.7%

Q: And the Activity (Staphylococcus aureus [6])?
A: inactive

Q: What about the Ratio (Escherichia coli [7]) of the same molecule?
A: 2

Q: COc1ccc(-c2cn([C@@H]3O[C@@H]4COP(=O)(O)O[C@H]5[C@@H](O)[C@H](n6cc(-c7ccc(OC)cc7)nn6)O[C@@H]5COP(=O)(O)O[C@H]4[C@H]3O)nn2)cc1 was tested. Which inhibition at 156 µM (Staphylococcus aureus [1]) did it give?
A: 19%

Q: What about the Activity (Escherichia coli [2]) of the same molecule?
A: inactive

Q: What about the inhibition at 156 µM (Escherichia coli [3]) of the same molecule?
A: 36.7%

Q: What about the Activity (Pseudomonas aeruginosa [4]) of the same molecule?
A: inactive

Q: What about the inhibition at 156 µM (Pseudomonas aeruginosa [5]) of the same molecule?
A: 53.3%

Q: What about the Activity (Staphylococcus aureus [6]) of the same molecule?
A: inactive

Q: What about the Ratio (Escherichia coli [7]) of the same molecule?
A: 2

Q: Which results are given for Nc1nc2c(ncn2[C@@H]2O[C@@H]3COP(=O)(O)O[C@H]4[C@@H](O)[C@H](n5cnc6c(=O)[nH]c(N)nc65)O[C@@H]4COP(=O)(O)O[C@H]3[C@H]2O)c(=O)[nH]1?
A: inhibition at 156 µM (Escherichia coli [3]): 12.5%; inhibition at 156 µM (Pseudomonas aeruginosa [5]): 52.9%

Q: O=P1(O)OC[C@H]2O[C@@H](n3cc(-c4ccccc4F)nn3)[C@H](O)[C@@H]2OP(=O)(O)OC[C@H]2O[C@@H](n3cc(-c4ccccc4F)nn3)[C@H](O)[C@@H]2O1 was tested. Which inhibition at 156 µM (Staphylococcus aureus [1]) did it give?
A: 16%

Q: And the Activity (Escherichia coli [2])?
A: inactive

Q: What about the inhibition at 156 µM (Escherichia coli [3]) of the same molecule?
A: 39.1%

Q: And the Activity (Pseudomonas aeruginosa [4])?
A: inactive

Q: And the inhibition at 156 µM (Pseudomonas aeruginosa [5])?
A: 59.4%

Q: And the Activity (Staphylococcus aureus [6])?
A: inactive

Q: What about the Ratio (Escherichia coli [7]) of the same molecule?
A: 2

Q: Which inhibition at 156 µM (Staphylococcus aureus [1]) does the source give for O=P1(O)OC[C@H]2O[C@@H](n3cc(-c4cc(F)cc(F)c4)nn3)[C@H](O)[C@@H]2OP(=O)(O)OC[C@H]2O[C@@H](n3cc(-c4cc(F)cc(F)c4)nn3)[C@H](O)[C@@H]2O1 here?
A: 8.24%

Q: What about the Activity (Escherichia coli [2]) of the same molecule?
A: inactive

Q: And the inhibition at 156 µM (Escherichia coli [3])?
A: 45.8%

Q: What about the Activity (Pseudomonas aeruginosa [4]) of the same molecule?
A: inactive

Q: And the inhibition at 156 µM (Pseudomonas aeruginosa [5])?
A: 47.3%

Q: And the Activity (Staphylococcus aureus [6])?
A: inactive

Q: What about the Ratio (Escherichia coli [7]) of the same molecule?
A: 2

Q: What does the source list for O=P1(O)OC[C@H]2O[C@@H](n3cc(-c4ccncc4)nn3)[C@H](O)[C@@H]2OP(=O)(O)OC[C@H]2O[C@@H](n3cc(-c4ccncc4)nn3)[C@H](O)[C@@H]2O1?
A: inhibition at 156 µM (Staphylococcus aureus [1]): 39.6%; Activity (Escherichia coli [2]): inactive; inhibition at 156 µM (Escherichia coli [3]): 34.2%; Activity (Pseudomonas aeruginosa [4]): inactive; inhibition at 156 µM (Pseudomonas aeruginosa [5]): 21.9%; Activity (Staphylococcus aureus [6]): inactive; Ratio (Escherichia coli [7]): 2

Q: O=P1(O)OC[C@H]2O[C@@H](n3cc(-c4ccccc4)nn3)[C@H](O)[C@@H]2OP(=O)(O)OC[C@H]2O[C@@H](n3cc(-c4ccccc4)nn3)[C@H](O)[C@@H]2O1 was tested. Which inhibition at 156 µM (Staphylococcus aureus [1]) did it give?
A: 24.1%

Q: And the Activity (Escherichia coli [2])?
A: inactive

Q: What about the inhibition at 156 µM (Escherichia coli [3]) of the same molecule?
A: 39.9%

Q: And the Activity (Pseudomonas aeruginosa [4])?
A: inactive

Q: And the inhibition at 156 µM (Pseudomonas aeruginosa [5])?
A: 44.2%

Q: And the Activity (Staphylococcus aureus [6])?
A: inactive

Q: And the Ratio (Escherichia coli [7])?
A: 2

Q: For O=P1(O)OC[C@H]2O[C@@H](n3cc(-c4ccc(F)cc4)nn3)[C@H](O)[C@@H]2OP(=O)(O)OC[C@H]2O[C@@H](n3cc(-c4ccc(F)cc4)nn3)[C@H](O)[C@@H]2O1, which inhibition at 156 µM (Staphylococcus aureus [1]) is on record?
A: 4.86%

Q: And the Activity (Escherichia coli [2])?
A: inactive

Q: What about the inhibition at 156 µM (Escherichia coli [3]) of the same molecule?
A: 25.1%

Q: And the Activity (Pseudomonas aeruginosa [4])?
A: inactive

Q: What about the inhibition at 156 µM (Pseudomonas aeruginosa [5]) of the same molecule?
A: 57.9%

Q: And the Activity (Staphylococcus aureus [6])?
A: inactive

Q: What about the Ratio (Escherichia coli [7]) of the same molecule?
A: 2

Q: With O=P1(O)OC[C@H]2O[C@@H](n3cc(-c4ccc(F)c(F)c4)nn3)[C@H](O)[C@@H]2OP(=O)(O)OC[C@H]2O[C@@H](n3cc(-c4ccc(F)c(F)c4)nn3)[C@H](O)[C@@H]2O1 as the molecule, how does the inhibition at 156 µM (Staphylococcus aureus [1]) read?
A: 15.9%

Q: And the Activity (Escherichia coli [2])?
A: inactive

Q: And the inhibition at 156 µM (Escherichia coli [3])?
A: 24.4%

Q: What about the Activity (Pseudomonas aeruginosa [4]) of the same molecule?
A: inactive

Q: And the inhibition at 156 µM (Pseudomonas aeruginosa [5])?
A: 51.4%

Q: What about the Activity (Staphylococcus aureus [6]) of the same molecule?
A: inactive

Q: What about the Ratio (Escherichia coli [7]) of the same molecule?
A: 2

Q: How did the inhibition at 156 µM (Staphylococcus aureus [1]) turn out when O=P1(O)OC[C@H]2O[C@@H](n3cc(-c4ccc(Br)cc4)nn3)[C@H](O)[C@@H]2OP(=O)(O)OC[C@H]2O[C@@H](n3cc(-c4ccc(Br)cc4)nn3)[C@H](O)[C@@H]2O1 was run?
A: 21.2%

Q: What about the Activity (Escherichia coli [2]) of the same molecule?
A: inactive

Q: And the inhibition at 156 µM (Escherichia coli [3])?
A: 35.1%

Q: What about the Activity (Pseudomonas aeruginosa [4]) of the same molecule?
A: inactive

Q: What about the inhibition at 156 µM (Pseudomonas aeruginosa [5]) of the same molecule?
A: 46%

Q: And the Activity (Staphylococcus aureus [6])?
A: inactive

Q: And the Ratio (Escherichia coli [7])?
A: 2
